PubChem BioAssay AID2060627 (Molecular Pharmacology Branch, DTP, NCI, 2025)

Tested on: 156681-154-R-J1-PDC complex spheroid viability
Assay: Anticancer human tumor 156681-154-R-J1-PDC patient-derived melanoma cell line growth inhibition [CLK]
Details: for IC50: curve of first compound; for viability, T/C: stronger effect = lower value
Method in brief: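 Multi-cell-type spheroids combined patient-derived tumor cells with HUVEC endothelial cells and human mesenchymal stem cells. Paired agents were dosed in half-log steps down from about clinical Cmax, or from 10 microM where Cmax was unknown.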
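Further: spheroids exposed to the agents for seven days.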
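Wherever viability, T/C is given: 100% = DMSO vehicle control viability.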

Nc1ccccc1NC(=O)c1ccc(CNC(=O)OCc2cccnc2)cc1 + CN1CCN(c2cc(C(=O)Nc3cc4cc(-c5cnn(C)c5)ccc4cn3)ccn2)CC1 was tested, and the IC50 (second compound 0.0316 µM) was 563 nM, the IC50 (second compound 0.1 µM) was 505 nM and the IC50 (second compound 0.316 µM) was under 31.6 nM. For the same compound, the IC50 (second compound 1 µM) was under 31.6 nM, the IC50 (second compound 3.16 µM) was under 31.6 nM and the IC50 (second compound 10 µM) was under 31.6 nM. For the same compound, the viability, T/C (second compound 0.0316 µM, first compound 0.0316 µM) was 104%, the viability, T/C (second compound 0.0316 µM, first compound 0.1 µM) was 86.9% and the viability, T/C (second compound 0.0316 µM, first compound 0.316 µM) was 69.7%. It also gave a viability, T/C (second compound 0.0316 µM, first compound 1 µM) of 33.3%, a viability, T/C (second compound 0.0316 µM, first compound 3.16 µM) of 5.05% and a viability, T/C (second compound 0.0316 µM, first compound 10 µM) of 0.29%. The viability, T/C (second compound 0.1 µM, first compound 0.0316 µM) was 95.2%, the viability, T/C (second compound 0.1 µM, first compound 0.1 µM) was 89.5% and the viability, T/C (second compound 0.1 µM, first compound 0.316 µM) was 65.2%. For the same compound, the viability, T/C (second compound 0.1 µM, first compound 1 µM) was 27.4%, the viability, T/C (second compound 0.1 µM, first compound 3.16 µM) was 7.52% and the viability, T/C (second compound 0.1 µM, first compound 10 µM) was 1.57%. It also gave a viability, T/C (second compound 0.316 µM, first compound 0.0316 µM) of 23.7%, a viability, T/C (second compound 0.316 µM, first compound 0.1 µM) of 20.4% and a viability, T/C (second compound 0.316 µM, first compound 0.316 µM) of 19.8%. The viability, T/C (second compound 0.316 µM, first compound 1 µM) was 14.6%, the viability, T/C (second compound 0.316 µM, first compound 3.16 µM) was 1.03% and the viability, T/C (second compound 0.316 µM, first compound 10 µM) was 0.71%. It also gave a viability, T/C (second compound 1 µM, first compound 0.0316 µM) of 0.22%, a viability, T/C (second compound 1 µM, first compound 0.1 µM) of 1.38% and a viability, T/C (second compound 1 µM, first compound 0.316 µM) of 0.48%. For the same compound, the viability, T/C (second compound 1 µM, first compound 1 µM) was 0.97%, the viability, T/C (second compound 1 µM, first compound 3.16 µM) was 2.99% and the viability, T/C (second compound 1 µM, first compound 10 µM) was 1.95%. For the same compound, the viability, T/C (second compound 3.16 µM, first compound 0.0316 µM) was 0.06%, the viability, T/C (second compound 3.16 µM, first compound 0.1 µM) was 0.81% and the viability, T/C (second compound 3.16 µM, first compound 0.316 µM) was 0.11%. The viability, T/C (second compound 3.16 µM, first compound 1 µM) was 0.92%, the viability, T/C (second compound 3.16 µM, first compound 3.16 µM) was 1.15% and the viability, T/C (second compound 3.16 µM, first compound 10 µM) was 1.84%. For the same compound, the viability, T/C (second compound 10 µM, first compound 0.0316 µM) was 0.03%, the viability, T/C (second compound 10 µM, first compound 0.1 µM) was 0.96% and the viability, T/C (second compound 10 µM, first compound 0.316 µM) was 0.58%. The viability, T/C (second compound 10 µM, first compound 1 µM) was 0.15%, the viability, T/C (second compound 10 µM, first compound 3.16 µM) was 3.86% and the viability, T/C (second compound 10 µM, first compound 10 µM) was 2.47%.
NC(=O)C(=Cn1cnc(-c2cc(C(F)(F)F)cc(C(F)(F)F)c2)n1)c1cncnc1 + CN1CCN(c2cc(C(=O)Nc3cc4cc(-c5cnn(C)c5)ccc4cn3)ccn2)CC1 showed an IC50 (second compound 0.0316 µM) of 61 nM, an IC50 (second compound 0.1 µM) of 31.3 nM and an IC50 (second compound 0.316 µM) of under 9.49 nM. For the same compound, the IC50 (second compound 1 µM) was under 9.49 nM, the IC50 (second compound 3.16 µM) was under 9.49 nM and the IC50 (second compound 10 µM) was under 9.49 nM. It also gave a viability, T/C (second compound 0.0316 µM, first compound 0.00949 µM) of 93.5%, a viability, T/C (second compound 0.0316 µM, first compound 0.03 µM) of 63.4% and a viability, T/C (second compound 0.0316 µM, first compound 0.0949 µM) of 45.5%. For the same compound, the viability, T/C (second compound 0.0316 µM, first compound 0.3 µM) was 13.1%, the viability, T/C (second compound 0.0316 µM, first compound 0.949 µM) was 4.9% and the viability, T/C (second compound 0.0316 µM, first compound 3 µM) was 3.07%. The viability, T/C (second compound 0.1 µM, first compound 0.00949 µM) was 64.3%, the viability, T/C (second compound 0.1 µM, first compound 0.03 µM) was 50.4% and the viability, T/C (second compound 0.1 µM, first compound 0.0949 µM) was 26.6%. It also gave a viability, T/C (second compound 0.1 µM, first compound 0.3 µM) of 6.93%, a viability, T/C (second compound 0.1 µM, first compound 0.949 µM) of 2.72% and a viability, T/C (second compound 0.1 µM, first compound 3 µM) of 1.03%. It also gave a viability, T/C (second compound 0.316 µM, first compound 0.00949 µM) of 10.8%, a viability, T/C (second compound 0.316 µM, first compound 0.03 µM) of 8.6% and a viability, T/C (second compound 0.316 µM, first compound 0.0949 µM) of 1.88%. For the same compound, the viability, T/C (second compound 0.316 µM, first compound 0.3 µM) was 0.07%, the viability, T/C (second compound 0.316 µM, first compound 0.949 µM) was 1.67% and the viability, T/C (second compound 0.316 µM, first compound 3 µM) was 1.86%. For the same compound, the viability, T/C (second compound 1 µM, first compound 0.00949 µM) was 0.14%, the viability, T/C (second compound 1 µM, first compound 0.03 µM) was 0.33% and the viability, T/C (second compound 1 µM, first compound 0.0949 µM) was 0.11%. It also gave a viability, T/C (second compound 1 µM, first compound 0.3 µM) of 0.39%, a viability, T/C (second compound 1 µM, first compound 0.949 µM) of 2.63% and a viability, T/C (second compound 1 µM, first compound 3 µM) of 0.65%. It also gave a viability, T/C (second compound 3.16 µM, first compound 0.00949 µM) of 0.07%, a viability, T/C (second compound 3.16 µM, first compound 0.03 µM) of 2.18% and a viability, T/C (second compound 3.16 µM, first compound 0.0949 µM) of 2.61%. It also gave a viability, T/C (second compound 3.16 µM, first compound 0.3 µM) of 1.32%, a viability, T/C (second compound 3.16 µM, first compound 0.949 µM) of 1.52% and a viability, T/C (second compound 3.16 µM, first compound 3 µM) of 0.84%. It also gave a viability, T/C (second compound 10 µM, first compound 0.00949 µM) of 0.07%, a viability, T/C (second compound 10 µM, first compound 0.03 µM) of 1.56% and a viability, T/C (second compound 10 µM, first compound 0.0949 µM) of 1.25%. The viability, T/C (second compound 10 µM, first compound 0.3 µM) was 2.65%, the viability, T/C (second compound 10 µM, first compound 0.949 µM) was 2.11% and the viability, T/C (second compound 10 µM, first compound 3 µM) was 0.95%.
